Calls of active or inactive are those of the source. The calls are words filed in the database; no cut-off is given here.
How the values were obtained:
DU-145 = test: Cytotoxicity against human DU145 cells after 72 hrs by MTT assay; type: functional, cell-based; conditions: DU-145, 72 h
HeLa [1] = test: Cytotoxicity against human HeLa cells after 72 hrs by MTT assay; type: functional, cell-based
B16 = test: Cytotoxicity against mouse B16 cells after 72 hrs by MTT assay; type: functional, cell-based; conditions: B16, 72 h
COLO 205 = test: Cytotoxicity against human COLO205 cells after 72 hrs by MTT assay; type: functional, cell-based; conditions: COLO 205, 72 h
PC-3 = test: Cytotoxicity against human PC3 cells after 72 hrs by MTT assay; type: functional, cell-based; conditions: PC-3, 72 h
HT-29 = test: Cytotoxicity against human HT-29 cells after 72 hrs by MTT assay; type: functional, cell-based; conditions: HT-29, 72 h
[2] = Cytotoxicity against human ME180 cells after 72 hrs by MTT assay; type: functional, cell-based; conditions: ME-180, 72 h
HeLa [3] = test: Cell cycle arrest in human HeLa cells assessed as accumulation at S phase at 0.5 uM after 24 hrs by propidium iodide staining-based FACS analysis (reference value: 4.62%); type: functional
Tubulin (Homo sapiens) [4] = target: T1, Tubulin (Homo sapiens) (UniProt P68371+Q9H4B7+P0DPH7+P68366+Q13509+Q71U36+P04350+Q3ZCM7+P07437+P68363+Q9BQE3+Q6PEY2+Q13885+Q9BVA1+Q9BUF5); test: Inhibition of tubulin polymerization in human HeLa cells assessed as disruption of microtubule organization at 1 uM after 48 hrs by immunohistochemical analysis; type: cell-based
HeLa [5] = test: Induction of apoptosis in human HeLa cells assessed as presence of apoptotic bodies at 1 uM after 48 hrs by Hoechst 33342 staining-based fluorescence microscopic analysis; type: functional, cell-based
HeLa [6] = test: Induction of apoptosis in human HeLa cells assessed as caspase-3 activation at 2 uM after 48 hrs by Ac-DEVD fluorescence assay relative to control; type: functional
HeLa [7] = test: Induction of apoptosis in human HeLa cells assessed as […] condensation at 1 uM after 48 hrs by Hoechst 33342 staining-based fluorescence microscopic analysis; type: functional, cell-based
HeLa [8] = test: Induction of apoptosis in human HeLa cells assessed as nuclear fragmentation at 1 uM after 48 hrs by Hoechst 33342 staining-based fluorescence microscopic analysis; type: functional, cell-based
Tubulin = test: Inhibition of tubulin (unknown origin) polymerization measured for 1 hr by fluorescence assay in presence of GTP; type: protein-complex assay, Homo sapiens
Tubulin (Homo sapiens) [9] = target: T1, Tubulin (Homo sapiens); test: Inhibition of tubulin (unknown origin) polymerization at 5 uM measured for 1 hr by fluorescence assay in presence of GTP relative to control; type: protein-complex assay
HeLa [10] = test: Cell cycle arrest in human HeLa cells assessed as accumulation at G2/M phase at 0.5 uM after 24 hrs by propidium iodide staining-based FACS analysis (reference value: 21.10%); type: functional
HeLa [11] = test: Cell cycle arrest in human HeLa cells assessed as accumulation at sub-G1 phase at 0.5 uM after 24 hrs by propidium iodide staining-based FACS analysis (reference value: 3.07%); type: functional
HeLa [12] = test: Cell cycle arrest in human HeLa cells assessed as accumulation at G1 phase at 0.5 uM after 24 hrs by propidium iodide staining-based FACS analysis (reference value: 71.21%); type: functional

SMILES | IC50 (DU-145) [µM] | IC50 (HeLa [1]) [µM] | IC50 (B16) [µM] | IC50 (COLO 205) [µM] | IC50 (PC-3) [µM] | IC50 (HT-29) [µM] | IC50 [2] [µM] | Activity (HeLa [3]) [%] | inhibition (Tubulin (Homo sapiens) [4]) | Activity (HeLa [5]) | fold change (FC) (HeLa [6]) | Activity (HeLa [7]) | Activity (HeLa [8]) | IC50 (Tubulin) [µM] | inhibition (Tubulin (Homo sapiens) [9]) [%] | Activity (HeLa [10]) [%] | Activity (HeLa [11]) [%] | Activity (HeLa [12]) [%]
COc1cc(C(=O)c2cc(OC)c(OC)c(OC)c2)cc(NC(=O)/C=C/c2ccc(C(F)(F)F)cc2)c1OC | 5.1 | 3 | 3.3 | 2.5 | 4.2 | 1.9 | 3.6 |  |  |  |  |  |  |  |  |  |  | 
C#CCOc1cccc(/C=C/C(=O)Nc2cc(C(=O)c3cc(OC)c(OC)c(OC)c3)ccc2OC)c1 | 15.8 | 14 | 12.2 | 13.4 | 13.1 | 7.4 | 15.3 |  |  |  |  |  |  |  |  |  |  | 
COc1cc(C(=O)c2cc(OC)c(OC)c(OC)c2)cc(NC(=O)/C=C/c2cc(F)c(F)c(F)c2)c1OC | 7.9 | 5 | 5.2 | 4.3 | 7.4 | 3.3 | 7.1 |  |  |  |  |  |  |  |  |  |  | 
COc1cc(/C=C/C(=O)Nc2cc(C(=O)c3cc(OC)c(OC)c(OC)c3)ccc2OC)ccc1F | 12.1 | 13.6 | 16.3 | 11.8 | 14.1 | 7.7 | 15.5 |  |  |  |  |  |  |  |  |  |  | 
COc1ccc(/C=C/C(=O)Nc2cc(C(=O)c3cc(OC)c(OC)c(OC)c3)ccc2OC)cc1 | 12.8 | 10.7 | 8.7 | 10.9 | 11.1 | 5.01 | 11.8 |  |  |  |  |  |  |  |  |  |  | 
COc1cccc(/C=C/C(=O)Nc2cc(OC)c(OC)c(OC)c2)c1 | 3.2 | 12.3 | 8.5 | 4.2 | 2.1 | 2.4 | 17.3 |  |  |  |  |  |  |  |  |  |  | 
COc1cccc(/C=C/C(=O)Nc2cc(C(=O)c3cc(OC)c(OC)c(OC)c3)cc(OC)c2OC)c1 | 12.5 | 6.9 | 6.7 | 10.7 | 13.3 | 8.7 | 8.6 |  |  |  |  |  |  |  |  |  |  | 
COc1ccc(C(=O)c2cc(OC)c(OC)c(OC)c2)cc1NC(=O)/C=C/c1ccc([N+](=O)[O-])cc1 | 15.6 | 8.5 | 6.4 | 11.4 | 10.4 | 5.1 | 9.3 |  |  |  |  |  |  |  |  |  |  | 
COc1ccc(/C=C/C(=O)Nc2cc(C(=O)c3cc(OC)c(OC)c(OC)c3)cc(OC)c2OC)cc1 | 10.4 | 11.2 | 9.4 | 4.8 | 6.3 | 3.8 | 12.5 |  |  |  |  |  |  |  |  |  |  | 
COc1cccc(/C=C/C(=O)Nc2cc(C(=O)c3cc(OC)c(OC)c(OC)c3)ccc2OC)c1 | 6.2 | 3.1 | 3.1 | 5.1 | 4.7 | 1.9 | 4.3 |  |  |  |  |  |  |  |  |  |  | 
COc1ccc(C(=O)c2cc(OC)c(OC)c(OC)c2)cc1NC(=O)/C=C/c1ccc(F)c(F)c1 | 10.2 | 8.1 | 6.5 | 6.02 | 8.3 | 4.2 | 8.9 |  |  |  |  |  |  |  |  |  |  | 
COc1ccc(C(=O)c2cc(OC)c(OC)c(OC)c2)cc1N | 2.1 | 0.06 | 0.03 | 0.2 | 1.1 | 0.05 | 0.08 | 5.07 | Active | Active | 5 | Active | Active | 0.6 | 58.3 | 37.36 | 4.56 | 53
